Measured values: patent publication US20170067909A1, “ASSAY-READY RECOMBINANT CELLS TRANSIENTLY OVEREXPRESSING GENES ENCODING DRUG TRANSPORTER PROTEINS AND/OR DRUG METABOLIZING ENZYMES” (Corning Incorporated, priority 2012, published 2017)
Where a chain is given by its changes, count along the chain named.

Legend:
[1] = molecular target: T1, OATP1B1*5 (Homo sapiens, UniProt Q9Y6L6, V174A); assay: OATP1B1 single nucleotide polymorphism panel uptake assay, OATP1B1*5 HEK-293 cells
T1 sequence (Q9Y6L6 1-691 V174A): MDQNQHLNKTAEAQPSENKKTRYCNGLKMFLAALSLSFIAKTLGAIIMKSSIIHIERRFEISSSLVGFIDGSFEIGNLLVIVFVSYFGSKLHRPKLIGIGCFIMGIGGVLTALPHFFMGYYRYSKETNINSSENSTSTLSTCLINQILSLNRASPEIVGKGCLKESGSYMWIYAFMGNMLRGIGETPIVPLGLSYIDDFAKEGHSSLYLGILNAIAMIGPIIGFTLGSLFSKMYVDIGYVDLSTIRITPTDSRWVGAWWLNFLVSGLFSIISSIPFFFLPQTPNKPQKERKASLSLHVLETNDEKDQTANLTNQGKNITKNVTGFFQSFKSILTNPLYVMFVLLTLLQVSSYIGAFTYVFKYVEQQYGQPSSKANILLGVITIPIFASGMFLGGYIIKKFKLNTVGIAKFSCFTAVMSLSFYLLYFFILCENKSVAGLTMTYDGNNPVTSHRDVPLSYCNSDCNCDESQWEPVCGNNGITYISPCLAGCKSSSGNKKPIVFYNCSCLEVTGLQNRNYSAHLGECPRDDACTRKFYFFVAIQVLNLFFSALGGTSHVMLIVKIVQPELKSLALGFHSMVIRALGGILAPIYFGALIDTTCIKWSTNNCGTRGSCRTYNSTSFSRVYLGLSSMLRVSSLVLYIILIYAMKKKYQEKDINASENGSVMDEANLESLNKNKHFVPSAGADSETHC

[2] = molecular target: T2, Organic Anion-Transporting Polypeptide 1B1 (Homo sapiens, UniProt Q9Y6L6); assay: Suspension assay, vacuum manifold, Corning TransportoCells OATP1B1*1a; format: in vitro ADME; settings: 5× substrate solution containing 25 μM, 10 minutes at 37° C., 600 k cells/well
T2 construct: host or cells: HEK293 cells, gene delivered by electroporation
T2 sequence (Q9Y6L6 1-691): T1 sequence (Q9Y6L6 1-691 V174A) with A174V
From the text: In this experiment, a suspension assay for characterizing the activity of a drug transporter protein in cryopreserved, Corning® TransportoCells™ was developed. More specifically, the use of a centrifugation method versus a vacuum manifold for separating unreacted substrate in characterizing the activity of Organic Anion-Transporting Polypeptide 1B1 was investigated. Corning® TransportoCells™ transiently transfected with the gene OATP1B1*1a were obtained from Corning Life Sciences (Cat. No. 354859). In the Corning® TransportoCells™, the gene OATP1B1*1a was delivered into HEK293 cells via electroporation and the HEK293 cells were recovered and cryopreserved 1 hour post-electroporation. In order to obtain suitable expression of the Organic Anion-Transporting Polypeptide 1B1 encoded by OATP1B1*1a, the Corning® TransportoCells™ were thawed, cultured, and harvested.
The cells were cultured in T-175 Vented-Cap Culture Flasks with Poly-D-Lysine (hereinafter, “PDL”; available from Corning Life Sciences, Cat. No. 354539) with plating medium for 48 hours at 37° C. and 8% CO2. The plating medium is detailed in Table 16. After 24 hours, sodium butyrate (obtained from Sigma) was added to the cells to reach final 5 mM. After 48 hours, the cells were rinsed twice with Phosphate-Buffered Saline (hereinafter, “PBS”, obtained from Corning).
The cells were then harvested with 0.05% Trypsin (obtained from Sigma) and washed once with Hank's Balanced Salt Solution (hereinafter, “HBSS”) buffer (with Ca^2+ and Mg^2+, obtained from Corning). Then, the cells were resuspended in HBSS (obtained from Corning) to a final cell density of 3×10^6 cells/ml. […]
Then, the cells were transferred to FiltrEX™ 96 Well Filter Plates with 0.66 mm Thick Glass Fiber Filter (available from Corning Life Sciences, Cat. No. 3511) and a vacuum was applied. […] The cell lysis was then subjected to the appropriate protein analysis and/or fluorescence analysis to characterize the activity of Organic Anion-Transporting Polypeptide 1B1.

Compound	uptake activity / transport compared to OATP1B1*1a cells (in words) [1]	Uptake Activity OATP1B1 [2]	Uptake Ratio [2]
C[C@]12CC[C@@H]3c4ccc(O)cc4CC[C@H]3[C@@H]1CC[C@@H]2O[C@@H]1O[C@H](C(=O)O)[C@@H](O)[C@H](O)[C@H]1O [E17βG]	Significantly impaired transport	2.19 pmol/mg/min	–
fluorescein methotrexate [FMTX]	Significantly impaired transport	0.46 pmol/mg/min	6.8
